Experimental data published in the supplement of paper PMC6045584.
± gives the standard deviation of the averaged measurements.

Columns and labels:
TEMOZOLOMIDE = compound: Cn1nnc2c(C(N)=O)ncn2c1=O [TEMOZOLOMIDE]; test: surviving fraction relative to DMSO-only wells; higher = less growth inhibition; conditions: exposure time: 5 days
Summary of the method: (§1)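 Five days of continuous inhibitor exposure, at 0.5, 1, 5, 10, 50, 100, 500 and 1000 nM, followed a 24-hour period after log-phase tumour cell lines were seeded at 250–500 cells per well in 384-well plates. Surviving fraction was derived from CellTiter-Glo luminescence relative to the median of DMSO-only wells. Plates were read after 10 minutes at room temperature, and lines screened three times were kept only if replicate Pearson r >0.7 and median Z' >0.3.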

XAV-939 = compound: Oc1nc(-c2ccc(C(F)(F)F)cc2)nc2c1CSCC2 [XAV-939]; test: as above; conditions: exposure time: 5 days
Summary of the method: as §1

Row | Test System | surviving fraction (TEMOZOLOMIDE; 0.5 nM) | surviving fraction (TEMOZOLOMIDE; 1 nM) | surviving fraction (TEMOZOLOMIDE; 5 nM) | surviving fraction (TEMOZOLOMIDE; 10 nM) | surviving fraction (TEMOZOLOMIDE; 50 nM) | surviving fraction (TEMOZOLOMIDE; 100 nM) | surviving fraction (TEMOZOLOMIDE; 500 nM) | surviving fraction (TEMOZOLOMIDE; 1000 nM) | surviving fraction (XAV-939; 0.5 nM) | surviving fraction (XAV-939; 1 nM) | surviving fraction (XAV-939; 5 nM) | surviving fraction (XAV-939; 10 nM) | surviving fraction (XAV-939; 50 nM) | surviving fraction (XAV-939; 100 nM) | surviving fraction (XAV-939; 500 nM) | surviving fraction (XAV-939; 1000 nM)
1 | MDAMB436 BREAST | 0.976 ± 0.14 | 1.03 ± 0.15 | 0.997 ± 0.13 | 1.09 ± 0.17 | 0.936 ± 0.1 | 1.04 ± 0.14 | 1.03 ± 0.11 | 0.959 ± 0.051 | 0.957 ± 0.092 | 0.911 ± 0.088 | 0.923 ± 0.013 | 0.968 ± 0.079 | 0.959 ± 0.075 | 0.958 ± 0.081 | 0.856 ± 0.049 | 0.82 ± 0.011
2 | MDAMB453 BREAST | 1.07 ± 0.015 | 1.097 ± 0.0087 | 1.13 ± 0.016 | 1.1 ± 0.076 | 1.14 ± 0.058 | 1.09 ± 0.11 | 1.07 ± 0.075 | 1.09 ± 0.056 | 0.991 ± 0.053 | 1.02 ± 0.034 | 1.1 ± 0.088 | 1.08 ± 0.043 | 1.06 ± 0.04 | 1.12 ± 0.074 | 1.02 ± 0.069 | 0.961 ± 0.049
3 | MDAMB468 BREAST | 0.983 ± 0.086 | 1.13 ± 0.045 | 1.114 ± 0.0027 | 1.17 ± 0.075 | 1.09 ± 0.07 | 1.15 ± 0.045 | 1.03 ± 0.1 | 1.12 ± 0.091 | 1.08 ± 0.041 | 1.04 ± 0.061 | 1.04 ± 0.039 | 1.08 ± 0.038 | 1.09 ± 0.014 | 1.05 ± 0.033 | 0.988 ± 0.072 | 0.964 ± 0.043
4 | MFM223 BREAST | 1.46 ± 0.65 | 1.38 ± 0.44 | 1.5 ± 0.54 | 1.49 ± 0.63 | 1.38 ± 0.52 | 1.19 ± 0.07 | 1.38 ± 0.48 | 1.17 ± 0.08 | 1.18 ± 0.037 | 1.11 ± 0.062 | 1.12 ± 0.023 | 1.112 ± 0.0058 | 0.913 ± 0.034 | 1.08 ± 0.043 | 0.891 ± 0.059 | 0.685 ± 0.033
5 | MG63 BONE | 0.964 ± 0.016 | 1.01 ± 0.036 | 1.03 ± 0.026 | 1.09 ± 0.035 | 1.01 ± 0.032 | 1.1 ± 0.047 | 0.997 ± 0.031 | 1.02 ± 0.032 | 0.98 ± 0.028 | 1.03 ± 0.034 | 1.025 ± 0.0083 | 1.09 ± 0.018 | 0.947 ± 0.034 | 0.923 ± 0.03 | 0.7 ± 0.0078 | 0.723 ± 0.021
6 | MHM BONE | 0.9827 ± 0.0021 | 0.975 ± 0.007 | 1.01 ± 0.043 | 1.04 ± 0.014 | 0.998 ± 0.042 | 1.03 ± 0.029 | 0.973 ± 0.032 | 0.998 ± 0.0056 | 0.999 ± 0.011 | 1.02 ± 0.033 | 1.024 ± 0.009 | 1.03 ± 0.033 | 0.96 ± 0.081 | 1.04 ± 0.012 | 0.963 ± 0.005 | 0.949 ± 0.029
7 | NCIH441 LUNG | 1.07 ± 0.065 | 1.14 ± 0.06 | 1.21 ± 0.059 | 1.06 ± 0.066 | 1.04 ± 0.081 | 1.13 ± 0.074 | 1.11 ± 0.086 | 1.19 ± 0.058 | 0.962 ± 0.096 | 1.07 ± 0.052 | 1.02 ± 0.064 | 1.07 ± 0.065 | 1.02 ± 0.077 | 1.06 ± 0.054 | 1.01 ± 0.045 | 0.918 ± 0.052
8 | NOS1 BONE | 0.881 ± 0.071 | 1.01 ± 0.077 | 1.16 ± 0.11 | 1.16 ± 0.049 | 1.25 ± 0.099 | 1.15 ± 0.067 | 1.01 ± 0.076 | 1.06 ± 0.14 | 1.11 ± 0.086 | 1.06 ± 0.045 | 1.29 ± 0.26 | 1.14 ± 0.074 | 1.17 ± 0.083 | 1.06 ± 0.096 | 0.783 ± 0.1 | 0.778 ± 0.065
9 | NY BONE | 1.01 ± 0.033 | 1.05 ± 0.018 | 1.01 ± 0.066 | 1.09 ± 0.035 | 1.063 ± 0.004 | 1.09 ± 0.029 | 1.014 ± 0.0032 | 1.02 ± 0.013 | 0.927 ± 0.024 | 0.98 ± 0.037 | 0.997 ± 0.018 | 1.06 ± 0.036 | 1.03 ± 0.053 | 1.02 ± 0.041 | 0.936 ± 0.032 | 0.924 ± 0.029
10 | OS25HAL BONE | 1.02 ± 0.037 | 1.09 ± 0.031 | 1.06 ± 0.019 | 1.11 ± 0.023 | 1.02 ± 0.033 | 1.09 ± 0.03 | 1.07 ± 0.051 | 1.08 ± 0.041 | 1.01 ± 0.026 | 1.04 ± 0.015 | 1.03 ± 0.014 | 0.965 ± 0.034 | 1.01 ± 0.013 | 1.03 ± 0.029 | 0.872 ± 0.06 | 0.893 ± 0.075
11 | OSHN BONE | 1.05 ± 0.014 | 1.08 ± 0.018 | 1.06 ± 0.018 | 1.13 ± 0.035 | 1.07 ± 0.016 | 1.1 ± 0.028 | 1.081 ± 0.0068 | 1.1 ± 0.018 | 1.02 ± 0.013 | 1.07 ± 0.047 | 1.07 ± 0.037 | 1.05 ± 0.038 | 1.05 ± 0.015 | 1.09 ± 0.031 | 1.07 ± 0.038 | 1.11 ± 0.035
12 | PCI30 HEADNECK | 0.957 ± 0.026 | 0.976 ± 0.067 | 0.988 ± 0.023 | 1.04 ± 0.043 | 1.07 ± 0.047 | 1.05 ± 0.041 | 0.937 ± 0.013 | 0.939 ± 0.03 | 1.01 ± 0.029 | 0.975 ± 0.064 | 1.07 ± 0.04 | 1.057 ± 0.0035 | 1.06 ± 0.036 | 1.15 ± 0.065 | 0.945 ± 0.13 | 0.8693 ± 0.008
13 | RDES SOFT TISSUE | 1.11 ± 0.033 | 1.2 ± 0.06 | 1.14 ± 0.088 | 1.02 ± 0.12 | 1.15 ± 0.13 | 1.3 ± 0.14 | 1.27 ± 0.15 | 1.34 ± 0.17 | 1.24 ± 0.15 | 1.3 ± 0.16 | 1.29 ± 0.21 | 1.22 ± 0.2 | 1.21 ± 0.14 | 1.18 ± 0.27 | 1.11 ± 0.11 | 1.08 ± 0.16
14 | S68 BREAST | 0.996 ± 0.22 | 1.07 ± 0.034 | 1.08 ± 0.18 | 1.06 ± 0.12 | 1.04 ± 0.044 | 1.09 ± 0.25 | 1.05 ± 0.078 | 1.29 ± 0.24 | 0.722 ± 0.22 | 0.763 ± 0.12 | 1.14 ± 0.25 | 0.983 ± 0.32 | 1.19 ± 0.13 | 1.12 ± 0.22 | 0.829 ± 0.05 | 0.767 ± 0.076
15 | SAOS2 BONE | 1.1 ± 0.026 | 1.12 ± 0.099 | 1.25 ± 0.047 | 1.2 ± 0.05 | 1.2 ± 0.13 | 1.23 ± 0.081 | 1.16 ± 0.063 | 1.18 ± 0.14 | 1.16 ± 0.027 | 1.15 ± 0.041 | 1.21 ± 0.022 | 1.28 ± 0.05 | 1.26 ± 0.034 | 1.25 ± 0.051 | 1.14 ± 0.046 | 1.07 ± 0.072
16 | SCC003 HEADNECK | 1.05 ± 0.077 | 1.04 ± 0.059 | 1.08 ± 0.072 | 1.15 ± 0.073 | 1.06 ± 0.034 | 1.1 ± 0.071 | 1.07 ± 0.057 | 1.09 ± 0.036 | 1.04 ± 0.11 | 1.07 ± 0.096 | 1.1 ± 0.052 | 1.08 ± 0.11 | 1.02 ± 0.025 | 1.07 ± 0.076 | 1.01 ± 0.12 | 1.05 ± 0.13
17 | SCC36 HEADNECK | 1.04 ± 0.065 | 1.08 ± 0.088 | 1.19 ± 0.11 | 1.14 ± 0.069 | 1.07 ± 0.056 | 1.08 ± 0.14 | 1.11 ± 0.1 | 1.05 ± 0.078 | 1.07 ± 0.11 | 0.964 ± 0.16 | 1.19 ± 0.045 | 1.06 ± 0.082 | 1.11 ± 0.032 | 1.1 ± 0.077 | 0.825 ± 0.029 | 0.711 ± 0.022
18 | SCC47 HEADNECK | 0.956 ± 0.035 | 1.06 ± 0.074 | 1.1 ± 0.035 | 1.12 ± 0.085 | 1.04 ± 0.11 | 1.22 ± 0.14 | 1.1 ± 0.06 | 1.14 ± 0.17 | 0.987 ± 0.14 | 1.14 ± 0.058 | 1.08 ± 0.036 | 1.16 ± 0.027 | 1.07 ± 0.047 | 1.11 ± 0.082 | 0.962 ± 0.05 | 0.966 ± 0.093
19 | SCC90 HEADNECK | 0.973 ± 0.039 | 1.16 ± 0.11 | 1.05 ± 0.053 | 1.02 ± 0.062 | 1.08 ± 0.073 | 1.06 ± 0.2 | 1.1 ± 0.088 | 1.01 ± 0.057 | 1.01 ± 0.1 | 1.11 ± 0.18 | 1.08 ± 0.077 | 1.13 ± 0.071 | 1.05 ± 0.03 | 1.05 ± 0.084 | 0.894 ± 0.032 | 0.918 ± 0.07
